How the values were obtained:
OCTN1 [1] = molecular target: T1, OCTN1 (Homo sapiens, UniProt Q9H015); test: uptake; format: cell-based
T1 sequence (Q9H015 1-551): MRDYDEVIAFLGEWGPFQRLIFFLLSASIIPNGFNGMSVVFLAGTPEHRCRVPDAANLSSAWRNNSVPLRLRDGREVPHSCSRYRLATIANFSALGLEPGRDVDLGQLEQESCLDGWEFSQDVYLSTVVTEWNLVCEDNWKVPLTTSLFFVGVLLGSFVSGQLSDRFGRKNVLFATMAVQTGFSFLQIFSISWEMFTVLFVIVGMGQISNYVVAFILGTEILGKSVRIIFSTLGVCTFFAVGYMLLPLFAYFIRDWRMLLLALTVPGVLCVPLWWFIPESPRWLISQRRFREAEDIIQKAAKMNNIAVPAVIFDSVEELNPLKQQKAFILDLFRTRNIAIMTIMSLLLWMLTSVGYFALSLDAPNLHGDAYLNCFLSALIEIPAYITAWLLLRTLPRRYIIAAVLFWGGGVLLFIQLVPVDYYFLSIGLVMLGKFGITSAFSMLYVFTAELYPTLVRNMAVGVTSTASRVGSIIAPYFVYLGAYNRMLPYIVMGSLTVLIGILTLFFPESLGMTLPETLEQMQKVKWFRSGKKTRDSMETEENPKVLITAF

OCTN1 [2] = molecular target: T1, OCTN1; test: uptake in OCTN1-transfected HEK293 cells; format: cell-based
OCTN1 [3] = molecular target: T1, OCTN1

| SMILES | uptake (1 μM, 5 min) in OCTN1-transfected HEK293 cells (OCTN1 [1]) | also measured |
| --- | --- | --- |
| Nc1nc(Cl)nc2c1ncn2[C@@H]1O[C@H](CO)[C@@H](O)[C@@H]1F [clofarabine] | adenosine analogs (eg, clofarabine and fludarabine), and guanosine analogs (eg, ribavirin) |  |
| C[N+](C)(C)[C@@H](Cc1c[nH]c(=S)[nH]1)C(=O)[O-] [ergothioneine] |  | uptake in OCTN1-transfected HEK293 cells (transport efficiency) (OCTN1 [2]): 62 ± 8 µL/min/mg |
| Nc1nc(F)nc2c1ncn2[C@@H]1O[C@H](CO)[C@@H](O)[C@@H]1O [fludarabine] | adenosine analogs (eg, clofarabine and fludarabine), and guanosine analogs (eg, ribavirin) |  |
| NC(=O)c1ncn([C@@H]2O[C@H](CO)[C@@H](O)[C@H]2O)n1 [ribavirin] | adenosine analogs (eg, clofarabine and fludarabine), and guanosine analogs (eg, ribavirin) |  |
| CC[N+](CC)(CC)CC [tetraethylammonium] |  | carbon 14-labeled TEA uptake in OCTN1-transfected HEK293 cells (transport effici) (OCTN1 [3]): 1.1 ± 0.12 µL/min/mg |
